This note sets out measurements from patent US5985926A, “Method for inhibiting intracellular viral replication” (Cell Therapeutics, Inc., priority 1997, dated 1999).

The test system of series [1] is CMV promoter in 293-EBNA cells. Put plainly: AP reporter gene expression from CMV promoter, 293-EBNA cells stably transfected with pCMV.AP. Format: cell-based, human cytomegalovirus; human cells. The following applies: for IC50: Homo sapiens, 293-EBNA stably transfected with pCMV.AP (FIG. 6), read-out: IC50, AP reporter gene expression (pCMV.AP); for inhibition of AP expression (CMV promoter): in words. As for the experimental part: An assay for measuring the anti-viral activity of the compounds involves testing the abilities of the compounds to inhibit gene expression directed by specific viral promoters in cell lines. Specifically, a plasmid construct, pCMV.AP, using the human cytomegalovirus (CMV) enhancer and promoter to direct the expression of the secreted human placental alkaline phosphatase reporter gene were transformed into a tumor cell line (e.g., 293-EBNA cells). The cultured cells were treated with various concentrations of the compounds. The expression of the alkaline phosphatase (AP) reporter gene in the individual cultures can then be measured by following the change in absorbance at A405 of the cell conditioned media in the presence of a suitable substrate (e.g., ortho-nitrophenol phosphate) (Berger et al., Gene 66:1,1988).
The construction of expression vectors for secreted placental alkaline phosphatase (sPAP) was performed by obtaining a mammalian episomal expression vector pBL3, derived from the plasmids pMEP4 and pCEP4 (Invitrogen Corp). Specifically, a 600 bp Spe I--Kpn I fragment spanning the CMV promoter from pCEP4 and a 9500 bp Xba I--Kpn I vector fragment from pMEP4 were isolated and ligated together to form pBL3. Full length sPAP cDNA was amplified by PCR using the plasmid pGEM4Z/SEAP (ATCC) as template with primers 5'-[…]-3' (SEQ ID NO. 1) and 5'-[…]-3' (SEQ ID NO. 2). The PCR product was then digested with Xba I and Sal I and inserted between the Nhe I site and the Xho I site within the multiple cloning region of pBL3. The resulting plasmid was designated as PCMV.AP.

The test system of series [2] is 293-EBNA cells. Nature of the series: Viability of 293-EBNA cells, Alamar Blue. Format: cell-based, human. Here is the method:
Cell viability was measured by a colorimetric assay that uses Alamar Blue dye (Alamar, Inc.) to report cell proliferation, viability and cytotoxicity. This vital dye indicates cell activity by serving as substrate for mitochrondrial dehydrogenases for the formation of soluble dyes which can be quantitated by determining the difference in absorbance between A570 and A600 using a plate reader.
Cell viability was measured by a […] assay that uses Alamar Blue dye (Alamar, Inc.) to report cell proliferation, viability and cytotoxicity. This vital dye indicates cell activity by serving as substrate for mitochrondrial dehydrogenases for the formation of soluble dyes which can be quantitated by determining the difference in absorbance between A570 and A600 using a plate reader.
This example illustrates that CT2576 suppressed both tat-dependent and TNF-α induced HIV-LTR transcription with an IC50 of approximately 10 μM. Study of the effects of CT2576 on cell toxicity was performed using the Alamar Blue™ dye (Alamar Biosciences) according to the manufacturer's instructions. CT2576 was not toxic to 293-EBNA cells at concentrations up to 35 μM. To show CT2576 can inhibit HIV expression, CT2576 was tested for the ability to block HIV p24 antigen expression in chronically or acutely infected cells. Specifically, CT2576 inhibited the TNF-α and IL-6 induced and the constitutive expression of HIV in the chronically infected U1 cells and in peripheral blood lymphocytes (PBL) freshly infected with a HIV strain from a clinical isolate with an IC50 of approximately 1 μM. Pharmacological inhibition of synthesis of selected PL may therefore be a novel therapeutic approach to suppression of HIV replication.

For series [3], the system named is HIV-LTR promoter (tat transactivation) in 293-EBNA cells. Nature of the series: AP reporter gene expression from HIV-LTR promoter with tat expression vector, 293-EBNA cells. Format: cell-based, HIV; human cells. The note with it: 293-EBNA cells, HIV promoter, in words. An excerpt:
The plasmid construct, pHIV.AP, using the human immunodeficiency virus (HIV) long terminal repeat (LTR) promoter (derived from pU3R-III CAT, Sodroski et al., Science 227:171, 1985) to direct the expression of the sPAP reporter gene, was made by replacing the CMV promoter region from pCMV.AP with the HIV-LTR promoter. PHIV.AP was co-transfected with pSV2tat72, an expression vector for the 72 amino acids tat protein from HIV (Frankel and Pabo, Cell 55:1189-1193, 1988), into 293-EBNA cells (Invitrogen). The cultured cells were treated with various concentrations of the compounds. The expression of the alkaline phosphatase (AP) reporter gene in the individual cultures was measured by following change in absorbance at 405 nm of the cell conditioned media in the presence of a suitable substrate (e.g., ortho-nitrophenol phosphate) (Berger et al., Gene 66:1-10, 1988).
We set up a cell-based system with a cell line cotransfected with an expression plasmid using HIV-1-LTR promoter to direct synthesis of AP reporter gene and an expression plasmid to direct synthesis of the first 72 amino acids of tat protein. Plasmid pREP7 (Invitrogen) was converted to pREP7b by deleting 2,040 bp EBNA-1 coding region and by replacing the pBR322 origin of replication (ori) with the pBluescript KS (Stratagene) ori region. The cDNA for secreted placental alkaline phosphatase (AP) was generated by PCR with the primers (5'-[…]-3')(SEQ ID NO. 3) and (5'-[…]-3') (SEQ ID NO. 4)using the plasmid pGEM-4Z/PLAP489 (American Type Culture Collection) as the template. The 2,000 bp Xba I-Sal I fragment obtained was ligated into a Nhe I/Xho I vector derived from pREP7b to generate the plasmid pREP7b.AP. The 44 bp Xba I-Bgl II fragment from plasmid pMEP4 (Invitrogen)and the 36 bp BamH I-Kpn I fragment from pREP7 were ligated into the Xba I-Kpn I vector fragment from pREP7b.AP to generate the plasmid pMCS.AP. The 720 bp Xho I-Hind III fragment encoding the HIV-LTR promoter from the plasmid pU3R-III-CAT (Sodroski et al., Science 227:171-173, 1985) was ligated into the Xho I-Hind III vector fragment of PMCS.AP to generate the plasmid pHIV.AP. The CMV promoter was derived from the 600 bp Spe I-Asp718 I fragment from pCEP4 (Invitrogen). The 360 bp SV40 early promoter fragments were produced from pSV2tat72 (Frankel et al., Cell 55:1189-1193,1988) by PCR using the primers (5'-[…]-3') (SEQ ID NO. 5) and (5'-[…]-3') (SEQ ID NO. 6). The 480 bp phosphoglycerate kinase (PGK) promoter fragment was amplified from human placental genomic DNA (Promega, Madison, Wis.) based on published sequence (Pfeifer et al., Science 246:810-813, 1990) using the primers (5'-[…]-3') (SEQ ID NO. 7) and (5'-[…]-3') (SEQ ID NO. 8). The above fragments were ligated into the Xba I-Asp718 I vector fragment of pHIV.AP to generate pHIV2.AP, pHIV3.AP, pCMV.AP, pSVE.AP and PPGK.AP respectively. The tat-expression plasmid directed by HIV-LTR promoter, pHIV.tat, was generated by inserting the 400 bp EcoRV-HindIII fragment from pHIV.AP into the PvuII-HindIII vector fragment from pSV2tat72 (Frankel et al., Cell 55:1189-1193, 1988).
Transient transfections with various expression plasmids were performed on a human kidney embryonic cell line 293-EBNA (Invitrogen) using the cationic lipid DOTAP (Boehringer Mannheim). The cell culture media were changed 24 hr after transfection into a serum-free medium AIM V (Life Technologies) before addition of compounds or TNF-α (PeproTech) at the appropriate concentrations. AP activity measured by a colorimetric assay (Berger et al., Gene 66:1-10, 1988) was performed 19-24 hr later.
In general terms: In a reporter assay the amount or activity of a reporter protein is the signal.

In series [4] the test system is 293-EBNA cells.
For series [5], the system named is PA (phosphatidic acid) formation in tat-transfected and tar-transfected cells. Nature of the series: PA mass / myrPA formation in serum-stimulated EB293, 293tat and 293tar cells. Format: cell-based, human. As for the experimental part:
Transformed and serum-stimulated cells were measured for total PA mass according to the methods described herein. […] The columns in FIG. 18 represent: (1) EB293 cells plus serum, (2) EB293 cells plus serum plus CT3556 (10 μM.), (3) 293tat cells plus serum, (4) 293tat cells plus serum plus CT3556 (10 μM.), (5) 293tar cells plus serum, and (6) 293tar cells plus serum plus CT3556 (10 μM.).
This procedure begins with those cells that would be normally infected with a virus, such as a retrovirus. However, it is not necessary to utilize a cell line containing a retroviral genome, such as U1 cells. In view of the necessity to utilize containment facilities when using an infected cell line, it is preferable to utilize a macrophage cell line that is not infected. Examples of appropriate macrophage cell lines include, U937, THP1, U1, and P288s (available from standard sources, such as ATCC). The cells are stimulated with a stimulant with or without a candidate drug. Examples of stimulants include 3-5% serum, such as fetal calf serum, or tumor necrosis factor (TNF) (e.g., 20 ng/ml) both of which are standard laboratory reagents. After a time course (within 5 minutes, preferably within 1 minute), the cells are immersed in ice cold methanol to stop any cellular signaling reactions.
One must first quantitatively and qualitatively separate PAs from the other lipids found in serum by a chemical extraction of lipids and high performance liquid chromatography (HPLC) to separate and detect PAs. Chemical extraction can be accomplished, for example, by the method of Bligh et al. (Canadian J. Biochem. Physiol. 37:911-917, 1959) or that of Folch et al. (J. Biol. Chem. 226:497-509, 1957). Briefly, the method of Bligh et al. involves an organic extraction of lipids from biological tissue homogenates or fluids. One volume of sample and three volumes of methanol:chloroform (2:1) are vigorously shaken for 2 min. One volume of chloroform is added and then shaken vigorously for 30 sec. One volume of water is added and then shaken vigorously for 30 sec. The mixture is filtered and the upper aqueous layer is discarded. The lower organic layer contains a mixture of lipid classes. The method of Folch et al. involves the extraction of lipids from biological tissue homogenates or body fluids. One volume of sample plus 20 volumes of chloroform:methanol (2:1) are vigorously shaken for 2 min. The mixture is filtered and an amount of 0.1 N KCl equal to 20% of the extraction mixture volume is added and the mixture is shaken vigorously for 2 min. The aqueous and organic phases are allowed to separate. The upper aqueous layer is discarded. The lower organic layer contains a mixture of lipid classes. Free fatty acids and neutral lipids can be separated from phospholipids by normal phase high performance liquid chromatography (HPLC) by modifying the method of Van Kessel et al. (Biochim et Biophys Acta 486:524-530, 1977). This method involves separation of lipids into their major classes by normal phase (silica) high performance liquid chromatography (HPLC). A 5 micron, 25 cm×0.45 cm silica HPLC column is connected to a binary solvent delivery system followed with a UV detector. The lipid sample is injected on the column and a solvent gradient is run at 1.0 ml/min. […]
Transformed and serum-stimulated cells were measured for total PA mass according to the methods described herein. […]

Broadly, the IC50 is the concentration needed to halve the response being measured. In the case of `CCCCCCCCCCNCC(O)CCCCCCCn1c(=O)c2c(ncn2C)n(C)c1=O` (stereo not drawn) [CT2571, 1-(9-decylamino-8-hydroxynonyl)-3,7-dimethylxanthine], the concentration for half-maximal inhibition (IC50) in series [1] was 8 µM. Also, the “cytotoxic effect on 293-EBNA cells (Alamar Blue)” value (from here on “cytotoxic effect”) in the series with 293-EBNA cells [2] is listed as “cytotoxic”.

Take `CCCCCCNCCCC(O)CCCCCCCn1c(=O)c2c(ncn2C)n(C)c1=O` (stereo not drawn) [CT2575, 1-(11-hexylamino-8-hydroxyundecyl)-3,7-dimethylxanthine]: the “inhibition of AP expression (HIV-LTR promoter)” value in series [3] was “inhibit HIV promoter driven expression”. Besides, in series [1], the IC50 worked out at 3 µM and the “inhibition of AP expression (CMV promoter)” value is on record as “inhibit CMV promoter driven expression”. For the same compound, the “cytotoxic effect” value in the series with 293-EBNA cells [2] was “no significant cytotoxic effect”. Also, in the series with 293-EBNA cells [4], the “effect on cell viability / cytotoxicity” value was “minimal cytotoxic effects”.

As for `Cn1cnc2c1c(=O)n(CCCCCCCCCC(O)CNc1ccccc1)c(=O)n2C` (stereo not drawn) [CT3528, N-(11-phenylamino-10-hydroxundecyl)-3,7-dimethylxanthine], the “inhibition of AP expression (CMV promoter)” value in series [1] is “No appreciable inhibition of AP expression”. In the series on 293-EBNA cells [2], the “cytotoxic effect” value is “no significant cytotoxic effect”.

Regarding `CCCCCCCCNCCCCCCCCCCCn1c(=O)c2c(ncn2C)n(C)c1=O` [CT3556, 1-(11-N-octylaminoundecyl)-3,7-dimethylxanthine], the “inhibition of myrPA formation in stimulated cells” value in series [5] (10 μM, tat-transfected cells stimulated with serum) is “inhibited myrPA formation in stimulated cells”. Besides, in series [5] (CT3556 10 μM (FIG. 18)), the “PA mass, 293tar cells plus serum” value is given as “significant drop in PA mass” and the “PA mass, 293tat cells plus serum” value is given as “increase in PA was blocked”.
